# Several values for one entry are separate records, joined by “and”; a condition that tells them apart may be missing. Equal values may be shown once.
# Molecular target: T1, Gag-Pol polyprotein [588-1027]/[588-1147] (Human immunodeficiency virus 1, UniProt P04585)
# T1 construct: 588-1027; 588-1147
# Test: HIV-1 RT Assay
# Conditions: pH 7.9
row,Structure (SMILES),IC50
1,COC(=O)CCC=C(c1cc(Cl)c(OC)c(C(=O)OC)c1)c1cc(Cl)c(OC)c(C(=O)OC)c1 [methyl 3-chloro-5-{1-[3-chloro-4-methoxy-5-(methoxycarbonyl)phenyl]-5-methoxy-5-oxopent-1-en-1-yl}-2-methoxybenzoate],> 100 µM
2,COC(=O)CC=C(c1cc(Cl)c(OC)c(C(=O)OC)c1)c1cc(Cl)c(OC)c(C(=O)OC)c1 [methyl 3-chloro-5-{1-[3-chloro-4-methoxy-5-(methoxycarbonyl)phenyl]-4-methoxy-4-oxobut-1-en-1-yl}-2-methoxybenzoate],> 100 µM
3,"CCC(CCCC=C(c1cc(Cl)c(OC)c(CO)c1)c1cc(Cl)c(OC)c(CO)c1)C1OCCO1 (stereo not drawn) [(3-chloro-5-{1-[3-chloro-5-(hydroxymethyl)-4-methoxyphenyl]-6-(1,3-dioxolan-2-yl)oct-1-en-1-yl}-2-methoxyphenyl)methanol]",3.2 µM and 31.6 µM

# — BindingDB's records for doi:10.1021/jm990343b (Purdue University, 1999)
